This note sets out measurements from ChEMBL document CHEMBL4330097 (J Med Chem, 2019).

SMILES strings stand for the structures. ≈ marks a conversion by molar mass, not a printed value.

A short description of series [1]: Lipophilicity, log D of the compound in acetonitrile/water at 1:1 ratio at pH 7.5 by RP-HPLC analysis. Particulars: acetonitrile/water 1:1 (RP-HPLC). Type of series: physicochemical.
Series [2] in a line: Aqueous solubility of the compound in DMSO at 6.5 after 24 hrs by HPLC-MS/MS analysis. The conditions noted are these: aqueous medium with DMSO, pH 6.5. It counts as physicochemical.
The nature of series [3]: Chemical stability of the compound assessed as degradation rate at pH 1 to 10 after 24 hrs by HPLC-UV analysis. Type of series: physicochemical. Particulars: buffer, pH 1, 24 h.
The nature of series [4]: Apparent permeability across apical to basolateral side in human Caco2 cells at 2 uM after 2 hrs by LC-MS/MS analysis. It counts as ADME, cell-based. Particulars: Caco-2. For orientation: Passage across Caco-2 layers is used to estimate intestinal permeability.
Series [5] is described as follows: Apparent permeability across basolateral to apical side in human Caco2 cells at 2 uM after 2 hrs by LC-MS/MS analysis. Type of series: ADME, cell-based. The conditions noted are these: Caco-2.
Series [6] is described as follows: Clearance in human liver microsomes at 1 uM up 60 mins in presence of NADP and glucose-6-phosphate by LC-MS/MS analysis. Type of series: ADME, Microsome. The conditions noted are these: 1 h. For orientation: Microsomes from liver hold many membrane-bound enzymes, among them those of drug oxidation.
A short description of series [7]: Maximal oral bioavailability in human. It counts as ADME, organism-based. The conditions noted are these: in vivo.
A short description of series [8]: Clearance in Han/Wistar rat hepatocytes at 1 uM up 90 mins by HPLC-MS/MS analysis. It counts as ADME, cell-based, Hepatocyte.
The nature of series [9]: Maximal oral bioavailability in Han/Wistar rat. It counts as ADME, organism-based. Particulars: in vivo.

Consider `CN1CCN(c2cnc3c(C4CCN(C(=O)c5ccc(OC(F)(F)F)cc5N)CC4)ncnc3c2)CC1` [BAY-885], for which the chromatographic logD in [1] turned out to be 2.4. The molecule further came in with a solubility at 24 h in series [2] of 218 µg/mL (≈ 423 µM). The Stability entry in [3] is reported as “Stable”. For the same molecule, the Papp A→B at 2 h, 2 µM in series [4] turned out to be 18.4 ×10⁻⁶ cm/s. In addition, in series [5], the apparent permeability from basolateral to apical (Papp B→A) at 2 h, 2 µM is 10.7 ×10⁻⁶ cm/s. For the same molecule, the CLH in [6] was determined as 13 mL/min/kg; in series [8] it was 61.7 mL/min/kg. Also, the Fmax in [7] came out at 38%; in series [9], 13%.

What is called chromatographic logD is lipophilicity estimated from chromatographic retention. A word on the solubility: it is how much of the substance goes into solution per volume. In general, Papp A→B refers to the apparent permeability from the apical to the basolateral side of a cell layer. One may read the Papp B→A as the apparent permeability from the basolateral to the apical side of a cell layer.
